From ChEMBL document CHEMBL5512665, “A CARM1 Inhibitor Potently Suppresses Breast Cancer Both In Vitro and In Vivo” (J Med Chem, 2024)
Activity calls are given as the source filed them. No cut-off for these calls is given here.

Assays:
[1] = system: 4T1; assay: Antitumor activity against mouse 4T1 cells implanted in BALB/C mouse assessed as upregulation of ISG15 gene expression at 50 mg/kg,ip administrated daily for 14 days by RT-qPCR analysis; format: functional, organism-based; conditions: time 14.0 day
[2] = Toxicity in BALB/C mouse xenografted with human MCF7 cells assessed as change in body weight at 50 mg/kg,ip administrated every other day for 29 days; format: organism-based; conditions: in vivo, 696 h, time 29 day
[3] = system: MCF7; assay: Antitumor activity against human MCF7 cells xenografted in BALB/C mouse assessed as downregulation of N-Myc gene expression at 25 mg/kg,ip administrated every other day for 29 days by RT-qPCR analysis; format: functional, organism-based; conditions: time 29.0 day
[4] = system: MCF7; assay: Synergistic antitumor activity against human MCF7 cells xenografted in BALB/C mouse assessed as downregulation of FOXC1 gene expression at 25 mg/kg,ip administrated every other day for 15 days in presence of 5 mg/kg tamoxifen oral administration by RT-qPCR analysis; format: functional, organism-based; conditions: time 15.0 day
[5] = system: 4T1; assay: Antitumor activity against mouse 4T1 cells implanted in BALB/C mouse assessed as upregulation of IFIT1 gene expression at 50 mg/kg,ip administrated daily for 14 days by RT-qPCR analysis; format: functional, organism-based; conditions: time 14.0 day
[6] = Toxicity in BALB/C mouse implanted with mouse 4T1 cells assessed as change in spleen morphology at 25 mg/kg,ip administrated daily for 14 days; format: organism-based; conditions: in vivo, 336 h, time 14 day
[7] = Toxicity in BALB/C mouse implanted with mouse 4T1 cells assessed as change in liver morphology at 25 mg/kg,ip administrated daily for 14 days; format: organism-based; conditions: in vivo, 336 h, time 14 day
[8] = Toxicity in BALB/C mouse xenografted with human MDA-MB-231 cells assessed as change in heart morphology at 25 mg/kg,ip administrated daily for 11 days; format: organism-based; conditions: in vivo, 264 h, time 11 day
[9] = system: MCF7; assay: Antitumor activity against human MCF7 cells xenografted in BALB/C mouse assessed as inhibition of tumor growth at 50 mg/kg,ip administrated every other day for 29 days; format: functional, organism-based; conditions: time 29.0 day
[10] = system: MCF7; assay: Antitumor activity against human MCF7 cells xenografted in BALB/C mouse assessed as upregulation of CCL5 gene expression at 50 mg/kg,ip administrated every other day for 29 days by RT-qPCR analysis; format: functional, organism-based; conditions: time 29.0 day
[11] = Toxicity in BALB/C mouse xenografted with human MDA-MB-231 cells assessed as change in lung morphology at 50 mg/kg,ip administrated daily for 11 days; format: organism-based; conditions: in vivo, 264 h, time 11 day
[12] = system: MCF7; assay: Antitumor activity against human MCF7 cells xenografted in BALB/C mouse assessed as upregulation of IFNalpha gene expression at 25 mg/kg,ip administrated every other day for 29 days by RT-qPCR analysis; format: functional, organism-based; conditions: time 29.0 day
[13] = Toxicity in BALB/C mouse xenografted with human MDA-MB-231 cells assessed as change in kidney morphology at 50 mg/kg,ip administrated daily for 11 days; format: organism-based; conditions: in vivo, 264 h, time 11 day
[14] = Toxicity in BALB/C mouse xenografted with human MCF7 cells assessed as change in liver morphology at 25 mg/kg,ip administrated every other day for 29 days; format: organism-based; conditions: in vivo, 696 h, time 29 day
[15] = system: MCF7; assay: Synergistic antiproliferative activity against human MCF7 cells assessed as inhibition of cell growth at 2.5 uM incubated for 7 days in presence of tamoxifen by celltiter 96 aqueous one solution cell proliferation assay; format: functional, cell-based; conditions: time 7.0 day
[16] = system: 4T1; assay: Potentiation of etoposide induced antitumor activity against mouse 4T1 cells implanted in BALB/C mouse assessed as upregulation of IFIT1 gene expression at 25 mg/kg,ip administrated daily for 12 days in presence of 8 mg/kg etoposide administration by RT-qPCR analysis; format: functional, organism-based; conditions: time 12.0 day
[17] = system: MCF7; assay: Antitumor activity against human MCF7 cells xenografted in BALB/C mouse assessed as downregulation of TFF1 gene expression at 25 mg/kg,ip administrated every other day for 29 days by RT-qPCR analysis; format: functional, organism-based; conditions: time 29.0 day
[18] = system: MDA-MB-231; assay: Antitumor activity against human MDA-MB-231 cells xenografted in BALB/C mouse assessed as inhibition of tumor growth at 50 mg/kg,ip administrated daily for 11 days; format: functional, organism-based; conditions: time 11.0 day
[19] = system: 4T1; assay: Potentiation of etoposide induced antiproliferative activity against mouse 4T1 cells assessed as inhibition of colony formation at 2.5 uM incubated for 10 days in presence of etoposide by crystal violet staining based analysis; format: functional, cell-based; conditions: time 10.0 day
[20] = Toxicity in BALB/C mouse implanted with mouse 4T1 cells assessed as change in heart morphology at 25 mg/kg,ip administrated daily for 14 days; format: organism-based; conditions: in vivo, 336 h, time 14 day
[21] = system: MCF7; assay: Synergistic antiproliferative activity against human MCF7 cells assessed as downregulation of C-Myc gene expression at 2.5 uM incubated for 6 hrs in presence of tamoxifen by RT-qPCR analysis; format: functional, cell-based
[22] = system: MCF7; assay: Synergistic antitumor activity against human MCF7 cells xenografted in BALB/C mouse assessed as downregulation of N-Myc gene expression at 25 mg/kg,ip administrated every other day for 15 days in presence of 5 mg/kg tamoxifen oral administration by RT-qPCR analysis; format: functional, organism-based; conditions: time 15.0 day
[23] = system: MCF7; assay: Antitumor activity against human MCF7 cells xenografted in BALB/C mouse assessed as upregulation of CCL5 gene expression at 25 mg/kg,ip administrated every other day for 29 days by RT-qPCR analysis; format: functional, organism-based; conditions: time 29.0 day
[24] = system: MCF7; assay: Synergistic antiproliferative activity against human MCF7 cells assessed as downregulation of FOXC1 gene expression at 2.5 uM incubated for 6 hrs in presence of tamoxifen by RT-qPCR analysis; format: functional, cell-based
[25] = system: 4T1; assay: Antitumor activity against mouse 4T1 cells implanted in BALB/C mouse assessed as downregulation of PGR gene expression at 50 mg/kg,ip administrated daily for 14 days by RT-qPCR analysis; format: functional, organism-based; conditions: time 14.0 day
[26] = system: MCF7; assay: Antitumor activity against human MCF7 cells xenografted in BALB/C mouse assessed as downregulation of PGR gene expression at 25 mg/kg,ip administrated every other day for 29 days by RT-qPCR analysis; format: functional, organism-based; conditions: time 29.0 day
[27] = Toxicity in BALB/C mouse xenografted with human MDA-MB-231 cells assessed as change in kidney morphology at 25 mg/kg,ip administrated daily for 11 days; format: organism-based; conditions: in vivo, 264 h, time 11 day
[28] = system: MCF7; assay: Antitumor activity against human MCF7 cells xenografted in BALB/C mouse assessed as downregulation of NRIP1 gene expression at 25 mg/kg,ip administrated every other day for 29 days by RT-qPCR analysis; format: functional, organism-based; conditions: time 29.0 day
[29] = system: 4T1; assay: Antitumor activity against mouse 4T1 cells implanted in BALB/C mouse assessed as downregulation of N-Myc gene expression at 50 mg/kg,ip administrated daily for 14 days by RT-qPCR analysis; format: functional, organism-based; conditions: time 14.0 day
[30] = system: MCF7; assay: Antitumor activity against human MCF7 cells xenografted in BALB/C mouse assessed as downregulation of CCND1 gene expression at 50 mg/kg,ip administrated every other day for 29 days by RT-qPCR analysis; format: functional, organism-based; conditions: time 29.0 day
[31] = system: MCF7; assay: Induction of cell cycle arrest in human MCF7 cells at 2.5 to 10 uM incubated overnight by propidium iodide staining based flow cytometry; format: functional; conditions: dose 2.5-10 µM
[32] = system: MCF7; assay: Synergistic antiproliferative activity against human MCF7 cells assessed as downregulation of CCND1 gene expression at 2.5 uM incubated for 6 hrs in presence of tamoxifen by RT-qPCR analysis; format: functional, cell-based

Q: Which results are given for `Cc1ccc(-c2nc(N3CCN(CCN(C)C)CC3)ncc2-c2ccoc2)cc1.Cl.Cl`?
A: Activity [1]: Active; Activity [2]: Non-Toxic; Activity [3]: Active; Activity [4]: Active; Activity [5]: Active; Activity [6]: Non-Toxic; Activity [7]: Non-Toxic; Activity [8]: Non-Toxic; Activity [9]: Active; Activity [10]: Active; Activity [11]: Non-Toxic; Activity [12]: Active; Activity [13]: Non-Toxic; Activity [14]: Non-Toxic; Activity [15]: Active; Activity [16]: Active; Activity [17]: Active; Activity [18]: Active; Activity [19]: Active; Activity [20]: Non-Toxic; Activity [21]: Active; Activity [22]: Active; Activity [23]: Active; Activity [24]: Active; Activity [25]: Active; Activity [26]: Active; Activity [27]: Non-Toxic; Activity [28]: Active; Activity [29]: Active; Activity [30]: Active; Activity [31]: Active; Activity [32]: Active
